Data set [1] concerns the target T1, Alpha-2D adrenergic receptor (Rattus norvegicus, UniProt P22909).
T1 construct: aliquots of the synaptic membrane fraction, the ligand ^3H-para-aminoclonidine and test drug; from tissue; host or cells: rat brain cortex synaptic membrane fraction (male Wistar rats)
T1 sequence (P22909 1-465): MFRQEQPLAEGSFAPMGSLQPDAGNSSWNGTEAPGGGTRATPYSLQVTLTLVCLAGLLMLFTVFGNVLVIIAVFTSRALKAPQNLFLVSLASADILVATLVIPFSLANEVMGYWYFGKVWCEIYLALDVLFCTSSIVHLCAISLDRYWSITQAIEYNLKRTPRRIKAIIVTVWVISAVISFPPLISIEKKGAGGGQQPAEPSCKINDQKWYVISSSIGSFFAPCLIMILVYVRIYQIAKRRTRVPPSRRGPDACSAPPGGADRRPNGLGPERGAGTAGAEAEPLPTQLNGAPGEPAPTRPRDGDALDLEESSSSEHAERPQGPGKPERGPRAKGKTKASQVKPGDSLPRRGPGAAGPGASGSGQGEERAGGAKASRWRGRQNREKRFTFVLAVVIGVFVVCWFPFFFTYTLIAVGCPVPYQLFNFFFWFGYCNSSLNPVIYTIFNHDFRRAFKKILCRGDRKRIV
Briefly: Alpha-2D adrenergic receptor binding assay (3H-para-aminoclonidine, rat cortex synaptic membranes). Conditions: ligand 3H-para-aminoclonidine, 25° C. 20 min. As to the method:
Alpha-2D adrenergic receptor binding assay
Male, Wistar rats (150-250 g, VAF, Charles River, Kingston, N.Y.) are sacrificed by cervical dislocation and their brains removed and placed immediately in ice cold HEPES buffered sucrose. The cortex is dissected out and homogenized in 20 volumes of HEPES sucrose in a Teflon™-glass homogenizer. The homogenate is centrifuged at 1000 g for 10 min, and the resulting supernatant centrifuged at 42,000 g for 10 min. The resulting pellet is resuspended in 30 volumes of 3 mM potassium phosphate buffer, pH 7.5, preincubated at 25° C. for 30 min and recentrifuged. The resulting pellet is resuspended as described above and used for the receptor binding assay. […] The incubation is terminated by filtration of the tube contents through glass fiber filter sheets. Following washing of the sheets with 10 mM HEPES buffer, the adhering radioactivity is quantified by liquid scintillation spectrometry.
Binding of the test drug to the receptor is determined by comparing the amount of radiolabeled ligand bound in control tubes without drug to the amount of radiolabeled ligand bound in the presence of the drug. Dose-response data are analyzed with LIGAND, a nonlinear curve fitting program designed specifically for the analysis of ligand binding data.

Counter-ions that a name gives are not always drawn. Like-named read-outs stand apart in the source and are kept apart here.

As for `c1nc(Cc2nc3c(s2)CCCC3)c[nH]1` (as salt: fumaric acid salt) [Cp-11], the melting point is 169 to 171 °C.

The compound `c1ccc2sc(Cc3c[nH]cn3)cc2c1` [Cp-1] gave a Ki in data set [1] (α2D Ki) of 1.1 nM.

As to `OC(c1c[nH]cn1)c1cc2ccccc2s1` (centres unmarked) [Cp-2], the affinity in data set [1] (α2D Ki) corresponds to a Ki of 74.9 nM.

In the case of `CC(c1c[nH]cn1)c1cc2ccccc2s1` (centres unmarked) [Cp-3], in data set [1] (α2D Ki), the Ki was found to be 14 nM.

`Brc1c(Cc2c[nH]cn2)sc2ccccc12` [Cp-4] showed a Ki in data set [1] (α2D Ki) of 0.22 nM.

In the case of `c1ccc2c(Cc3c[nH]cn3)csc2c1` [Cp-6], in data set [1] (α2D Ki), the Ki worked out at 0.09 nM.

In the case of `c1ccc2sc(-c3c[nH]cn3)cc2c1` [Cp-9], the Ki in data set [1] (read-out: α2D Ki) worked out at 18 nM.

`c1nc(Cc2nc3c(s2)CCCC3)c[nH]1` [Cp-11]: the Ki in data set [1] (read-out: α2D Ki) amounted to 110 nM.

The values are drawn from patent US20020025974A1, “BICYCLE THIOPHENES AND THIAZOLES” (priority 1998, published 2002).
